Laboratory results taken from patent US8415351B2 (priority 2007, dated 2013).

Legend:
[1] = system: genotype 1a-H77 subgenomic replicon cell line; assay: microbe, parasite or virus in culture; type: cell-based, HCV; conditions: Hepatitis C virus, read-out: EC50 1a
[2] = system: genotype 1b-Con1 subgenomic replicon cell line; assay: microbe, parasite or virus in culture; type: cell-based, HCV; conditions: Hepatitis C virus, read-out: EC50 1b

COc1c(-c2ccc3nc(NS(C)(=O)=O)cnc3c2)cc(-n2ccc(=O)[nH]c2=O)cc1C(C)(C)C [IB-L0-2.26, N-(6-(3-tert-butyl-5-(2,4-dioxo-3,4-dihydropyrimidin-1(2H)-yl)-2-methoxyphenyl)quinoxalin-2-yl)methanesulfonamide]
EC50 [1]: > 1 µM | EC50 [2]: 0.1 to 1 µM

COc1c(-c2ccc3nc(N)sc3c2)cc(-n2ccc(=O)[nH]c2=O)cc1C(C)(C)C [IB-L0-2.27, 1-(3-(2-aminobenzo[d]thiazol-6-yl)-5-tert-butyl-4-methoxy-phenyl)pyrimidine-2,4(1H,3H)-dione]
EC50 [1]: 0.1 to 1 µM | EC50 [2]: 0.01 to 0.1 µM

COc1c(-c2ccc3nc(NS(C)(=O)=O)sc3c2)cc(-n2ccc(=O)[nH]c2=O)cc1C(C)(C)C [IB-L0-2.28, N-(6-(3-tert-butyl-5-(2,4-dioxo-3,4-dihydropyrimidin-1(2H)-yl)-2-methoxyphenyl)benzo[d]thiazol-2-yl)methanesulfonamide]
EC50 [1]: > 1 µM | EC50 [2]: 0.1 to 1 µM

COc1c(-c2ccc3c(c2)CNC3=O)cc(-n2ccc(=O)[nH]c2=O)cc1C(C)(C)C [IB-L0-2.30, 1-(3-tert-butyl-4-methoxy-5-(1-oxoisoindolin-5-yl)phenyl)-pyrimidine-2,4(1H,3H)-dione]
EC50 [1]: 0.1 to 1 µM | EC50 [2]: 0.01 to 0.1 µM

COc1c(-c2ccc3c(c2)CCN3S(C)(=O)=O)cc(-n2ccc(=O)[nH]c2=O)cc1C(C)(C)C [IB-L0-2.32, 1-(3-tert-butyl-4-methoxy-5-(1-(methylsulfonyl)indolin-5-yl)phenyl)pyrimidine-2,4(1H,3H)-dione]
EC50 [1]: 0.1 to 1 µM | EC50 [2]: 0.01 to 0.1 µM

COc1c(-c2ccc3ncsc3c2)cc(-n2ccc(=O)[nH]c2=O)cc1C(C)(C)C [IB-L0-2.33, 1-(3-(benzo[d]thiazol-6-yl)-5-tert-butyl-4-methoxyphenyl)pyrimidine-2,4(1H,3H)-dione]
EC50 [1]: 0.1 to 1 µM | EC50 [2]: 0.1 to 1 µM

COc1c(-c2ccc3nc(Cl)sc3c2)cc(-n2ccc(=O)[nH]c2=O)cc1C(C)(C)C [IB-L0-2.38, 1-(3-tert-butyl-5-(2-chlorobenzo[d]thiazol-6-yl)-4-methoxyphenyl)pyrimidine-2,4(1H,3H)-dione]
EC50 [1]: > 1 µM | EC50 [2]: > 1 µM

COc1c(-c2ccc3c(c2)CC=C3C(C)(C)NS(C)(=O)=O)cc(-n2ccc(=O)[nH]c2=O)cc1C(C)(C)C [IB-L0-2.41, N-(2-(6-(3-tert-butyl-5-(2,4-dioxo-3,4-dihydropyrimidin-1(2H)-yl)-2-methoxyphenyl)-1H-inden-3-yl)propan-2-yl)methanesulfonamide]
EC50 [1]: 0.1 to 1 µM | EC50 [2]: 0.1 to 1 µM

COc1c(-c2ccc3c(C)coc3c2)cc(-n2ccc(=O)[nH]c2=O)cc1C(C)(C)C [IB-L0-2.42, 1-(3-tert-butyl-4-methoxy-5-(3-methylbenzofuran-6-yl)phenyl)-pyrimidine-2,4(1H,3H)-dione]
EC50 [1]: 0.1 to 1 µM | EC50 [2]: 0.1 to 1 µM

COc1c(-c2ccc3c(c2)CCN(NS(C)(=O)=O)C3)cc(-n2ccc(=O)[nH]c2=O)cc1C(C)(C)C [IB-L0-2.43, N-(6-(3-tert-butyl-5-(2,4-dioxo-3,4-dihydropyrimidin-1(2H)-yl)-2-methoxyphenyl)-3,4-dihydroisoquinolin-2(1B)-yl)methanesulfonamide]
EC50 [1]: > 1 µM | EC50 [2]: 0.1 to 1 µM

COc1c(-c2ccc3c(CNS(C)(=O)=O)noc3c2)cc(-n2ccc(=O)[nH]c2=O)cc1C(C)(C)C [IB-L0-2.45, N-((6-(3-tert-butyl-5-(2,4-dioxo-3,4-dihydropyrimidin-1(2H)-yl)-2-methoxyphenyl)benzo[d]isoxazol-3-yl)methyl)methanesulfonamide]
EC50 [1]: > 1 µM | EC50 [2]: 0.1 to 1 µM

COc1c(-c2ccc3c(c2)/C(=N/NS(C)(=O)=O)CC3)cc(-n2ccc(=O)[nH]c2=O)cc1-c1cccs1 [IB-L0-2.51, (E)-N′-(6-(5-(2,4-dioxo-3,4-dihydropyrimidin-1(2H)-yl)-2-methoxy-3-(thiophen-2-yl)phenyl)-2,3-dihydro-1H-inden-1-ylidene)methanesulfonohydrazide]
EC50 [1]: 0.01 to 0.1 µM | EC50 [2]: < 0.01 µM

CCC(C)(C)c1cc(-n2ccc(=O)[nH]c2=O)cc(-c2ccc3cc(NS(C)(=O)=O)ccc3c2)c1OC [IB-L0-2.52, N-(6-(5-(2,4-dioxo-3,4-dihydropyrimidin-1(2H)-yl)-2-methoxy-3-tert-pentylphenyl)naphthalen-2-yl)methanesulfonamide]
EC50 [1]: 0.01 to 0.1 µM | EC50 [2]: < 0.01 µM

COc1c(-c2ccsc2)cc(-n2ccc(=O)[nH]c2=O)cc1-c1ccc2cc(NS(C)(=O)=O)ccc2c1 [IB-L0-2.53, N-(6-(5-(2,4-dioxo-3,4-dihydropyrimidin-1(2H)-yl)-2-methoxy-3-(thiophen-3-yl)phenyl)naphthalen-2-yl)methanesulfonamide]
EC50 [1]: 0.01 to 0.1 µM | EC50 [2]: 0.01 to 0.1 µM

COc1c(-c2ccc3c(c2)/C(=N/NS(C)(=O)=O)CC3)cc(-n2ccc(=O)[nH]c2=O)cc1-c1ccco1 [IB-L0-2.55, (E)-N′-(6-(5-(2,4-dioxo-3,4-dihydropyrimidin-1(2H)-yl)-3-(furan-2-yl)-2-methoxyphenyl)-2,3-dihydro-1H-inden-1-ylidene)methanesulfonohydrazide]
EC50 [1]: 0.01 to 0.1 µM | EC50 [2]: < 0.01 µM

COc1c(-c2ccc3cc(NS(C)(=O)=O)ccc3c2)cc(-n2ccc(=O)[nH]c2=O)cc1C(F)(F)F [IB-L0-2.56, N-(6-(5-(2,4-dioxo-3,4-dihydropyrimidin-1(2H)-yl)-2-methoxy-3-(trifluoromethyl)phenyl)naphthalen-2-yl)methanesulfonamide]
EC50 [1]: 0.1 to 1 µM | EC50 [2]: < 0.01 µM

COc1c(I)cc(-n2ccc(=O)[nH]c2=O)cc1-c1ccc2cc(NS(C)(=O)=O)ccc2c1 [IB-L0-2.57, N-(6-(5-(2,4-dioxo-3,4-dihydropyrimidin-1(2H)-yl)-3-iodo-2-methoxyphenyl)naphthalen-2-yl)methanesulfonamide]
EC50 [1]: 0.1 to 1 µM | EC50 [2]: 0.01 to 0.1 µM

COc1c(-c2ccc3cc(NS(C)(=O)=O)ccc3c2)cc(-n2ccc(=O)[nH]c2=O)cc1-c1ccco1 [IB-L0-2.59, N-(6-(5-(2,4-dioxo-3,4-dihydropyrimidin-1(2H)-yl)-3-(furan-2-yl)-2-methoxyphenyl)naphthalen-2-yl)methanesulfonamide]
EC50 [1]: 0.1 to 1 µM | EC50 [2]: 0.01 to 0.1 µM

COc1c(-c2ccc3cc(NS(C)(=O)=O)ccc3c2)cc(-n2ccc(=O)[nH]c2=O)cc1-c1cccs1 [IB-L0-2.61, N-(6-(5-(2,4-dioxo-3,4-dihydropyrimidin-1(2H)-yl)-2-methoxy-3-(thiophen-2-yl)phenyl)naphthalen-2-yl)methanesulfonamide]
EC50 [1]: 0.1 to 1 µM | EC50 [2]: 0.01 to 0.1 µM

COc1c(-c2ccoc2)cc(-n2ccc(=O)[nH]c2=O)cc1-c1ccc2cc(NS(C)(=O)=O)ccc2c1 [IB-L0-2.64, N-(6-(5-(2,4-dioxo-3,4-dihydropyrimidin-1(2H)-yl)-3-(furan-3-yl)-2-methoxyphenyl)naphthalen-2-yl)methanesulfonamide]
EC50 [1]: 0.1 to 1 µM | EC50 [2]: < 0.01 µM

COCC(C)(C)c1cc(-n2ccc(=O)[nH]c2=O)cc(-c2ccc3cc(NS(C)(=O)=O)ccc3c2)c1OC [IB-L0-2.66, N-(6-(5-(2,4-dioxo-3,4-dihydropyrimidin-1(2H)-yl)-2-methoxy-3-(1-methoxy-2-methylpropan-2-yl)phenyl)naphthalen-2-yl)methanesulfonamide]
EC50 [1]: 0.1 to 1 µM | EC50 [2]: 0.01 to 0.1 µM

COc1c(-c2ccc3cc(NS(C)(=O)=O)ccc3c2)cc(-n2ccc(=O)[nH]c2=O)cc1S(C)(=O)=O [IB-L0-2.68, N-(6-(5-(2,4-dioxo-3,4-dihydropyrimidin-1(2H)-yl)-2-methoxy-3-(methylsulfonyl)phenyl)naphthalen-2-yl)methanesulfonamide]
EC50 [1]: > 1 µM | EC50 [2]: 0.1 to 1 µM

COc1c(Br)cc(-n2ccc(=O)[nH]c2=O)cc1-c1ccc2cc(NS(C)(=O)=O)ccc2c1 [IB-L0-2.69, N-(6-(3-bromo-5-(2,4-dioxo-3,4-dihydropyrimidin-1(2H)-yl)-2-methoxyphenyl)naphthalen-2-yl)methanesulfonamide]
EC50 [1]: 0.1 to 1 µM | EC50 [2]: 0.01 to 0.1 µM

COC(=O)C(C)(C)c1cc(-n2ccc(=O)[nH]c2=O)cc(-c2ccc3cc(NS(C)(=O)=O)ccc3c2)c1OC [IB-L0-2.70, methyl 2-(5-(2,4-dioxo-3,4-dihydropyrimidin-1(2H)-yl)-2-methoxy-3-(6-(methylsulfonamido)naphthalen-2-yl)phenyl)-2-methylpropanoate]
EC50 [1]: > 1 µM | EC50 [2]: 0.1 to 1 µM

COc1c(-c2ccccc2)cc(-n2ccc(=O)[nH]c2=O)cc1-c1ccc2cc(NS(C)(=O)=O)ccc2c1 [IB-L0-2.71, N-(6-(5-(2,4-dioxo-3,4-dihydropyrimidin-1(2H)-yl)-2-methoxy-biphenyl-3-yl)naphthalen-2-yl)methanesulfonamide]
EC50 [1]: 0.1 to 1 µM | EC50 [2]: 0.01 to 0.1 µM

COC(=O)c1cc(-n2ccc(=O)[nH]c2=O)cc(-c2ccc3cc(NS(C)(=O)=O)ccc3c2)c1OC [IB-L0-2.72, methyl 5-(2,4-dioxo-3,4-dihydropyrimidin-1(2H)-yl)-2-methoxy-3-(6-(methylsulfonamido)naphthalen-2-yl)benzoate]
EC50 [1]: > 1 µM | EC50 [2]: 0.1 to 1 µM

COc1c(-c2ccc3cc(NS(C)(=O)=O)ccc3c2)cc(-n2ccc(=O)[nH]c2=O)cc1-c1ccc(C)s1 [IB-L0-2.73, N-(6-(5-(2,4-dioxo-3,4-dihydropyrimidin-1(2H)-yl)-2-methoxy-3-(5-methylthiophen-2-yl)phenyl)naphthalen-2-yl)methanesulfonamide]
EC50 [1]: 0.1 to 1 µM | EC50 [2]: 0.1 to 1 µM

COc1c(-c2cccc(Cl)c2)cc(-n2ccc(=O)[nH]c2=O)cc1-c1ccc2cc(NS(C)(=O)=O)ccc2c1 [IB-L0-2.74, N-(6-(3′-chloro-5-(2,4-dioxo-3,4-dihydropyrimidin-1(2H)-yl)-2-methoxybiphenyl-3-yl)naphthalen-2-yl)methanesulfonamide]
EC50 [1]: > 1 µM | EC50 [2]: 0.1 to 1 µM

COc1c(NS(C)(=O)=O)cc(-n2ccc(=O)[nH]c2=O)cc1-c1ccc2cc(NS(C)(=O)=O)ccc2c1 [IB-L0-2.75, N-(5-(2,4-dioxo-3,4-dihydropyrimidin-1(2H)-yl)-2-methoxy-3-(6-(methylsulfonamido)naphthalen-2-yl)phenyl)methanesulfonamide]
EC50 [1]: > 1 µM | EC50 [2]: > 1 µM
